Source: ChEMBL document CHEMBL1909294, “Translating clinical findings into knowledge in drug safety evaluation--drug induced liver injury prediction system (DILIps)” (PLoS Comput Biol, 2011)

Columns and labels:
Hepatotoxicity [1] = test system: Hepatotoxicity;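 on HepSE bilirubinemia: bilirubinemia hepatic side effect score drawn from the DILIps training data, a prediction system for drug-induced liver injury; call rule not given here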;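 on HepSE cholecystitis: Cholecystitis-related hepatic side effect score drawn from the DILIps (drug-induced liver injury prediction) training data set; call rule not given here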;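 on HepSE cholelithiasis: hepatic side effect score for cholelithiasis, drawn from the DILIps training data for predicting drug-induced liver injury; call rule not given here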;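 on HepSE cirrhosis: cirrhosis hepatic side effect score taken from the DILIps (drug-induced liver injury prediction) training set; call rule not given here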;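 on HepSE elevated liver function tests: hepatic side effect score for raised liver function tests, as recorded in the DILIps training set used for predicting drug-induced liver injury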; on HepSE hepatic failure: call rule not given here;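 on HepSE hepatomegaly: hepatic side effect score for hepatomegaly, taken from the training set of the DILIps drug-induced liver injury prediction system; call rule not given here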
Hepatotoxicity [2] = test system: Hepatotoxicity; remark: listed apart in the source;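 on HepSE bilirubinemia: bilirubinemia hepatic side effect score drawn from the DILIps training data, a prediction system for drug-induced liver injury; call rule not given here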;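 on HepSE cholecystitis: Cholecystitis-related hepatic side effect score drawn from the DILIps (drug-induced liver injury prediction) training data set; call rule not given here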;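 on HepSE cholelithiasis: hepatic side effect score for cholelithiasis, drawn from the DILIps training data for predicting drug-induced liver injury; call rule not given here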;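 on HepSE cirrhosis: cirrhosis hepatic side effect score taken from the DILIps (drug-induced liver injury prediction) training set; call rule not given here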;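 on HepSE elevated liver function tests: hepatic side effect score for raised liver function tests, as recorded in the DILIps training set used for predicting drug-induced liver injury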; on HepSE hepatic failure: call rule not given here;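 on HepSE hepatomegaly: hepatic side effect score for hepatomegaly, taken from the training set of the DILIps drug-induced liver injury prediction system; call rule not given here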
Hepatotoxicity [3] = test system: Hepatotoxicity; remark: listed apart in the source;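 on HepSE bilirubinemia: bilirubinemia hepatic side effect score drawn from the DILIps training data, a prediction system for drug-induced liver injury; call rule not given here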;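 on HepSE cholecystitis: Cholecystitis-related hepatic side effect score drawn from the DILIps (drug-induced liver injury prediction) training data set; call rule not given here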;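 on HepSE cholelithiasis: hepatic side effect score for cholelithiasis, drawn from the DILIps training data for predicting drug-induced liver injury; call rule not given here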;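 on HepSE cirrhosis: cirrhosis hepatic side effect score taken from the DILIps (drug-induced liver injury prediction) training set; call rule not given here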;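 on HepSE elevated liver function tests: hepatic side effect score for raised liver function tests, as recorded in the DILIps training set used for predicting drug-induced liver injury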; on HepSE hepatic failure: call rule not given here
Hepatotoxicity [4] = test system: Hepatotoxicity; remark: listed apart in the source;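 on HepSE bilirubinemia: bilirubinemia hepatic side effect score drawn from the DILIps training data, a prediction system for drug-induced liver injury; call rule not given here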;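 on HepSE cholecystitis: Cholecystitis-related hepatic side effect score drawn from the DILIps (drug-induced liver injury prediction) training data set; call rule not given here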;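 on HepSE cholelithiasis: hepatic side effect score for cholelithiasis, drawn from the DILIps training data for predicting drug-induced liver injury; call rule not given here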;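 on HepSE cirrhosis: cirrhosis hepatic side effect score taken from the DILIps (drug-induced liver injury prediction) training set; call rule not given here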;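 on HepSE elevated liver function tests: hepatic side effect score for raised liver function tests, as recorded in the DILIps training set used for predicting drug-induced liver injury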; on HepSE hepatic failure: call rule not given here
Hepatotoxicity [5] = test system: Hepatotoxicity; remark: listed apart in the source; on HepSE hepatic failure: call rule not given here
Hepatotoxicity [6] = test system: Hepatotoxicity; remark: listed apart in the source; on HepSE hepatic failure: call rule not given here
Hepatotoxicity [7] = test system: Hepatotoxicity; remark: listed apart in the source
Hepatotoxicity [8] = test system: Hepatotoxicity; remark: listed apart in the source
Hepatotoxicity [9] = test system: Hepatotoxicity; remark: listed apart in the source
Hepatotoxicity [10] = test system: Hepatotoxicity; remark: listed apart in the source
Hepatotoxicity [11] = test system: Hepatotoxicity; remark: listed apart in the source
Hepatotoxicity [12] = test system: Hepatotoxicity; remark: listed apart in the source
Hepatotoxicity [13] = test system: Hepatotoxicity; remark: listed apart in the source
Hepatotoxicity [14] = test system: Hepatotoxicity; remark: listed apart in the source

Row | SMILES | HepSE_bilirubinemia (Hepatotoxicity [1]) | HepSE_cholecystitis (Hepatotoxicity [2]) | HepSE_cholelithiasis (Hepatotoxicity [3]) | HepSE_cirrhosis (Hepatotoxicity [4]) | HepSE_elevated liver function tests (Hepatotoxicity [5]) | HepSE_hepatic failure (Hepatotoxicity [6]) | HepSE_hepatic necrosis (Hepatotoxicity [7]) | HepSE_hepatitis (Hepatotoxicity [8]) | HepSE_hepatomegaly (Hepatotoxicity [9]) | HepSE_jaundice (Hepatotoxicity [10]) | HepSE_liver disease (Hepatotoxicity [11]) | HepSE_liver fatty (Hepatotoxicity [12]) | HepSE_liver function tests abnormal (Hepatotoxicity [13]) | HepSE_Combined Scores (Hepatotoxicity [14]) | further results
1 | O=C(N[C@H](CO)[C@H](O)c1ccc([N+](=O)[O-])cc1)C(Cl)Cl [CHLORAMPHENICOL] | 0 | 0 | 0 | 0 | 0 | 0 | 0 | 0 | 0 | 0 | 0 | 0 | 0 | 0 | 
2 | O=c1[nH]c2ccccc2n1C1CCN(CCCC(c2ccc(F)cc2)c2ccc(F)cc2)CC1 [PIMOZIDE] | 0 | 0 | 0 | 0 | 0 | 0 | 0 | 0 | 0 | 0 | 0 | 0 | 0 | 0 | 
3 | CCCCN(CCCC)CCC(O)c1cc2c(Cl)cc(Cl)cc2c2cc(C(F)(F)F)ccc12 (configuration not stated) [HALOFANTRINE] | 0 | 0 | 0 | 0 | 0 | 0 | 0 | 0 | 0 | 0 | 0 | 0 | 0 | 0 | 
4 | CN1CCC[C@H]1c1cccnc1 [NICOTINE] |  |  |  |  |  |  |  |  |  |  |  |  |  |  | HepSE_bilirubinemia (Hepatotoxicity [1]; Liver): 0; HepSE_cholecystitis (Hepatotoxicity [2]; Liver): 0; HepSE_cholelithiasis (Hepatotoxicity [3]; Liver): 0; HepSE_cirrhosis (Hepatotoxicity [4]; Liver): 0; HepSE_elevated liver function tests (Hepatotoxicity [5]; Liver): 0; HepSE_hepatic failure (Hepatotoxicity [6]; Liver): 0; HepSE_hepatic necrosis (Hepatotoxicity [7]; Liver): 0; HepSE_hepatitis (Hepatotoxicity [8]; Liver): 0; HepSE_hepatomegaly (Hepatotoxicity [9]; Liver): 0; HepSE_jaundice (Hepatotoxicity [10]; Liver): 0; HepSE_liver disease (Hepatotoxicity [11]; Liver): 0; HepSE_liver fatty (Hepatotoxicity [12]; Liver): 0; HepSE_liver function tests abnormal (Hepatotoxicity [13]; Liver): 0; HepSE_Combined Scores (Hepatotoxicity [14]; Liver): 0
5 | N[C@@H](Cc1ccc(N(CCCl)CCCl)cc1)C(=O)O | 0 | 0 | 0 | 0 | 0 | 0 | 0 | 1 | 0 | 1 | 0 | 0 | 1 | 3 | 
6 | CCCOc1ccc(C(=O)OCCN(CC)CC)cc1N [PROPARACAINE] | 0 | 0 | 0 | 0 | 0 | 0 | 0 | 0 | 0 | 0 | 0 | 0 | 0 | 0 | 
7 | C=CCN1CC[C@]23c4c5ccc(O)c4O[C@H]2C(=O)CC[C@@]3(O)[C@H]1C5 [NALOXONE] | 0 | 0 | 0 | 0 | 0 | 0 | 0 | 0 | 0 | 0 | 0 | 0 | 0 | 0 | 
8 | C#C[C@]1(O)CC[C@H]2[C@@H]3CCC4=Cc5oncc5C[C@]4(C)[C@H]3CC[C@@]21C [DANAZOL] | 0 | 0 | 0 | 0 | 0 | 0 | 0 | 0 | 0 | 1 | 0 | 0 | 0 | 1 | 
9 | COc1cccc2c1C(=O)c1c(O)c3c(c(O)c1C2=O)C[C@@](O)(C(C)=O)C[C@@H]3O[C@H]1C[C@H](N)[C@H](O)[C@H](C)O1 [DAUNORUBICIN] | 0 | 0 | 0 | 0 | 0 | 0 | 0 | 0 | 1 | 0 | 0 | 0 | 0 | 1 | 
10 | COC(=O)Nc1nc2ccc(C(=O)c3ccccc3)cc2[nH]1 [MEBENDAZOLE] | 0 | 0 | 0 | 0 | 0 | 0 | 0 | 1 | 0 | 0 | 0 | 0 | 0 | 1 | 
11 | COc1cc(Cc2cnc(N)nc2N)cc(OC)c1OC [TRIMETHOPRIM] |  |  |  |  |  |  |  |  |  |  |  |  |  |  | HepSE_bilirubinemia (Hepatotoxicity [1]; Liver): 0; HepSE_cholecystitis (Hepatotoxicity [2]; Liver): 0; HepSE_cholelithiasis (Hepatotoxicity [3]; Liver): 0; HepSE_cirrhosis (Hepatotoxicity [4]; Liver): 0; HepSE_elevated liver function tests (Hepatotoxicity [5]; Liver): 0; HepSE_hepatic failure (Hepatotoxicity [6]; Liver): 0; HepSE_hepatic necrosis (Hepatotoxicity [7]; Liver): 0; HepSE_hepatitis (Hepatotoxicity [8]; Liver): 0; HepSE_hepatomegaly (Hepatotoxicity [9]; Liver): 0; HepSE_jaundice (Hepatotoxicity [10]; Liver): 1; HepSE_liver disease (Hepatotoxicity [11]; Liver): 0; HepSE_liver fatty (Hepatotoxicity [12]; Liver): 0; HepSE_liver function tests abnormal (Hepatotoxicity [13]; Liver): 0; HepSE_Combined Scores (Hepatotoxicity [14]; Liver): 1
12 | CNC(=C[N+](=O)[O-])NCCSCc1csc(CN(C)C)n1 [NIZATIDINE] | 0 | 0 | 0 | 0 | 0 | 0 | 0 | 1 | 0 | 1 | 0 | 0 | 0 | 2 | 
13 | COc1ccccc1Oc1c(NS(=O)(=O)c2ccc(C(C)(C)C)cc2)nc(-c2ncccn2)nc1OCCO [BOSENTAN] | 0 | 0 | 0 | 1 | 0 | 1 | 0 | 1 | 0 | 1 | 0 | 0 | 0 | 4 | 
